Data taken from patent publication US20190031615A1, “3-ETHYL-3-PHENYLAZEPANE DERIVATIVES HAVING MULTIMODAL ACTIVITY AGAINST PAIN” (LABORATORIOS DEL DR. ESTEVE S.A., priority 2016, published 2019).

Each compound was assayed on σ1 receptor and μ-opioid receptor (assay: Human σ1 receptor and human μ-opioid receptor radioligand assays (dual binding scale)). Conditions: joint class for both Ki; σ1: [3H](+)-pentazocine, transfected HEK-293 membranes; μ: [3H]-DAMGO, transfected CHO-K1 cell membranes.
Parameters: key to μ and σ1 dual binding: +: Both Ki-μ and Ki-σ1>=500 nM; ++: One Ki <500 nM while the other Ki is >=500 nM; +++: Both Ki-μ and Ki-σ1 <500 nM; ++++: Both Ki-μ and Ki-σ1 <100 nM
Method: To investigate binding properties of test compounds to human […] receptor, transfected HEK-293 membranes and [^3H](+)-pentazocine (Perkin Elmer, NET-1056), as the radioligand, were used. The assay was carried out with 7 μg of membrane suspension, 5 nM of [^3H](+)-pentazocine in either absence or presence of either buffer or 10 μM Haloperidol for total and non-specific binding, respectively. Binding buffer contained Tris-HCl 50 mM at pH 8. Plates were incubated at 37° C. for 120 minutes. After the incubation period, the reaction mix was then transferred to MultiScreen HTS, FC plates (Millipore), filtered and plates were washed 3 times with ice-cold 10 mM Tris-HCL (pH7.4). Filters were dried and counted at approximately 40% efficiency in a MicroBeta scintillation counter (Perkin-Elmer) using EcoScint liquid scintillation cocktail
To investigate binding properties of test compounds to human μ-opioid receptor, transfected CHO-K1 cell membranes and [^3H]-DAMGO (Perkin Elmer, ES-542-C), as the radioligand, were used. The assay was carried out with 20 μg of membrane suspension, 1 nM of [^3H]-DAMGO in either absence or presence of either buffer or 10 μM Naloxone for total and non-specific binding, respectively. Binding buffer contained Tris-HCl 50 mM, MgCl2 5 mM at pH 7.4. Plates were incubated at 27° C. for 60 minutes. After the incubation period, the reaction mix was then transferred to MultiScreen HTS, FC plates (Millipore), filtered and plates were washed 3 times with ice-cold 10 mM Tris-HCL (pH 7.4). Filters were dried and counted at approximately 40% efficiency in a MicroBeta scintillation counter (Perkin-Elmer) using EcoScint liquid scintillation cocktail.
`CCOCCN1CCCC[C@@](CC)(c2cccc(O)c2)C1` (stereo in doubt) [Example 20, (S)-3-(1-(2-ethoxyethyl)-3-ethylazepan-3-yl)phenol] was tested, and the “μ and σ1 dual binding” value was “++”.
`CCOCCN1CCCC[C@](CC)(c2cccc(O)c2)C1` (stereo in doubt) [Example 21, (R)-3-(1-(2-ethoxyethyl)-3-ethylazepan-3-yl)phenol] was tested, and the “μ and σ1 dual binding” value was “++”.
With `CCC1(c2cccc(OC)c2)CCCCN(CCN2CCN(C)CC2)C1` (stereo not shown) [Example 1, 3-Ethyl-3-(3-methoxyphenyl)-1-(2-(4-methylpiperazin-1-yl)ethyl)azepane] the Ki was at least 0.5 µM.
With `CCC1(c2cccc(OC)c2)CCCCN(CCN2CCOCC2)C1` (stereo not shown) [Example 3, 4-(2-(3-Ethyl-3-(3-methoxyphenyl)azepan-1-yl)ethyl)morpholine] the Ki was at least 0.5 µM.
With `CCC1(c2cccc(OC)c2)CCCCN(CCN2CCCCC2)C1` (stereo not shown) [Example 4, 3-ethyl-3-(3-methoxyphenyl)-1-(2-(piperidin-1-yl)ethyl)azepane] the Ki was at least 0.5 µM.
Compound `CCOCCN1CCCCC(CC)(c2cccc(OC)c2)C1` (stereo not shown) [Example 5, 1-(2-ethoxyethyl)-3-ethyl-3-(3-methoxyphenyl)azepane] has a Ki of at least 0.5 µM.
For `CCC1(c2cccc(O)c2)CCCCN(CCN2CCN(C)CC2)C1` (stereo not shown) [Example 6, 3-(3-Ethyl-1-(2-(4-methylpiperazin-1-yl)ethyl)azepan-3-yl)phenol], the “μ and σ1 dual binding” value was “++”.
For `CCC1(c2cccc(O)c2)CCCCN(CCN2CCN(c3ccccc3)CC2)C1` (stereo not shown) [Example 7, 3-(3-ethyl-1-(2-(4-phenylpiperazin-1-yl)ethyl)azepan-3-yl)phenol], the “μ and σ1 dual binding” value was “++”.
With `CCC1(c2cccc(O)c2)CCCCN(CCN2CCOCC2)C1` (stereo not shown) [Example 8, 3-(3-ethyl-1-(2-morpholinoethyl)azepan-3-yl)phenol] the “μ and σ1 dual binding” value was “++”.
With `CCC1(c2cccc(O)c2)CCCCN(CCN2CCCCC2)C1` (stereo not shown) [Example 9, 3-(3-ethyl-1-(2-(piperidin-1-yl)ethyl)azepan-3-yl)phenol] the Ki was under 0.5 µM.
For `CCC1(c2cccc(O)c2)CCCCN(CCO)C1` (stereo not shown) [Example 10, 3-(3-ethyl-1-(2-hydroxyethyl)azepan-3-yl)phenol], the “μ and σ1 dual binding” value was “++”.
`CCOCCN1CCCCC(CC)(c2cccc(O)c2)C1` (stereo not shown) [Example 11, 3-(1-(2-Ethoxyethyl)-3-ethylazepan-3-yl)phenol] was tested, and the Ki was under 0.1 µM.
`CCC1(c2cccc(O)c2)CCCCN(CCOC(C)C)C1` (stereo not shown) [Example 12, 3-(3-ethyl-1-(2-isopropoxyethyl)azepan-3-yl)phenol] showed a Ki of under 0.5 µM.
`CCC1(c2cccc(O)c2)CCCCN(CC(=O)N2CCCCC2)C1` (stereo not shown) [Example 13, 2-(3-ethyl-3-(3-hydroxyphenyl)azepan-1-yl)-1-(piperidin-1-yl)ethanone] was tested, and the “μ and σ1 dual binding” value was “++”.
With `CCC1(c2cccc(O)c2)CCCCN(CCOc2cccnc2)C1` (stereo not shown) [Example 14, 3-(3-ethyl-1-(2-(pyridin-3-yloxy)ethyl)azepan-3-yl)phenol] the “μ and σ1 dual binding” value was “++”.
`CCC1(c2cccc(O)c2)CCCCN(CC(=O)N2CCOCC2)C1` (stereo not shown) [Example 16, 2-(3-ethyl-3-(3-hydroxyphenyl)azepan-1-yl)-1-morpholinoethanone] showed a Ki of at least 0.5 µM.
For `CCC1(c2cccc(O)c2)CCCCN(CCOC)C1` (stereo not shown) [Example 17, 3-(3-ethyl-1-(2-methoxyethyl)azepan-3-yl)phenol], the “μ and σ1 dual binding” value was “++”.
With `CCC1(c2cccc(O)c2)CCCCN(CCOC2CC2)C1` (stereo not shown) [Example 18, 3-(1-(2-cyclopropoxyethyl)-3-ethylazepan-3-yl)phenol] the “μ and σ1 dual binding” value was “++”.
In the case of `CCC1(c2cccc(O)c2)CCCCN(CCOCC(C)(C)O)C1` (stereo not shown) [Example 19, 3-(3-ethyl-1-(2-(2-hydroxy-2-methylpropoxy)ethyl)azepan-3-yl)phenol], the “μ and σ1 dual binding” value is reported as “++”.
`CCOCCN1CCCCC(CC)(c2cccc(N)c2)C1` (stereo not shown) [Example 22, 3-[1-(2-Ethoxyethyl)-3-ethylazepan-3-yl]aniline] was tested, and the Ki was at least 0.5 µM.
Work on `CCOCCN1CCCCC(CC)(c2cccc(NS(C)(=O)=O)c2)C1` (stereo not shown) [Example 23, N-{3-[1-(2-Ethoxyethyl)-3-ethylazepan-3-yl]phenyl}methanesulfonamide] yielded a Ki of at least 0.5 µM.
`CCOCCN1CCCCC(CC)(c2cccc(NS(=O)(=O)C(C)C)c2)C1` (stereo not shown) [Example 24, N-{3-[1-(2-Ethoxyethyl)-3-ethylazepan-3-yl]phenyl}propane-2-sulfonamide] was tested, and the Ki was at least 0.5 µM.
